Test results taken from US9878007B2, “Syndecan peptides and polypeptides as inhibitors of vascular endothelial growth factor receptor-2 (VEGFR2) and very late antigen-4 (VLA-4)” (Wisconsin Alumni Research Foundation, priority 2015, dated 2018).
No end group written: not given here.

How the values were obtained:
VEGFR2 = biological target: T1, VEGFR2 (Homo sapiens, UniProt P35968); experiment: GST pull down assay: capture of VEGFR2 by GST-S1ED; assay type: binding; settings: HPSE^low cell lysates; peptide 30 M [sic]
T1 construct: endogenous in cells; host or cells: CAG human myeloma cells (HPSE^low = empty vector; HPSE^high = human HPSE cDNA)
Procedure: FIGS. 6A-G. Peptides derived from the active site in Sdc1 activate or inhibit adhesion and invasion. (FIG. 6A) Transwell migration assays towards FN (for 16 hrs) were performed for HPSE low or high cells in the presence of 0, 0.3, 3, and 30 μM of S1ED^210-240. Cells migrating to the bottom side of the filter were counted from five random images for each treatment. (FIG. 6B) The sequence of S1ED210-240 is shown (SEQ ID NO: 3), as well as […] truncation mutants of the peptide (SEQ ID NOs: 5, 2, 4 and 7). Amino acids shown in red appear necessary for the spreading and invasive activity. (FIG. 6C) Images of HPSE^low and HPSE^high cells plated on FN for 2 hr. (FIG. 6D) HPSE^low cells were treated with 0, 0.3, 3, 10 and 30 μM of S1ED^210-236, S1ED^210-233, or S1ED^214-240, plated on FN for 2 hr, fixed and stained with fluorescent phalloidin. Cells from five random images were quantified for cell attachment and cell spreading. (FIG. 6E) HPSE^high cells were treated with 0, 3, 10, and 30 μM of S1ED^210-236, S1ED^210-233, and S1ED^214-240, plated on FN for 2 hr, then fixed, imaged and quantified as in FIG. 6D. (FIG. 6F) Transwell migration assays towards FN (for 16 hr) were performed for HPSE^low or HPSE^high cells in the presence of 30 μM of S1ED^210-236, S1ED^210-233, S1ED^214-240 and Vandetanib. (FIG. 6G) HPSE^low cell lysates were incubated overnight with glutathione beads coated with GST or GST-S1ED in the absence or presence of 30 μM of S1ED^210-236, S1ED^210-233, and S1ED^214-240. Capture of VLA-4 or VEGFR2 was detected by immunoblotting. Sequences in FIG. 6B are 210-240 (SEQ ID NO: 3), 210-236 (SEQ ID NO: 2), 210-233 (SEQ ID NO: 4), 214-240 (SEQ ID NO: 5) and 214-236 (SEQ ID NO: 7).
CAG cells were washed with CMF-PBS and then lysed for 20 min on ice in lysis buffer. Cell debris was removed by centrifugation at 13000 rpm for 20 min at 4° C. Whole cell lysates were then incubated at 4° C. overnight with either 3 μM GST or 3 μM GST-S1ED in the absence or presence of 1 μM, 3 μM, and 10 μM S1ED^210-240 peptide. GST or GST-S1ED was captured by addition of glutathione Sepharose and the beads were washed with ice-cold lysis buffer and CMF-PBS, prior to addition of SDS-PAGE sample buffer and analyszed by electrophoresis and western blotting as described previously.

[1] = test system: P3x63Ag8 mouse myeloma cells; experiment: Adhesion of P3x63Ag8 myeloma cells to FN; assay type: cell-based; settings: 30 uM peptide, 2.5 hr
Procedure: FIG. 7A-B. S1ED^214-236, specific for VEGFR2 coupling to VLA-4, blocks myeloma cell invasion but not adhesion. (FIG. 7A) P3x63Ag8 mouse myeloma cells are plating on the VLA-4 ligand FN in the presence or absence of 30 uM S1ED^210-233 (SEQ ID No: 4) or S1ED^214-236 (SEQ ID No: 7) for 2.5 hr. (FIG. 7B) P3x63Ag8 myeloma cells are plated on FN-coated filters in the presence of HPSE inhibitor OGT2115, VLA-4 blocking antibody P1H4, VEGFR2 inhibitor Vandetanib or S1ED^210-233 or S1ED^214-236 and allowed to migrate through the filter for 16 hr. Small black dots are the pores in the filter.
Nitrocellulose-coated slides were coated for 2 hr at 37° C. with 40 μg/ml FN (kindly provided by Dr. Donna Peters, University of Wisconsin-Madison) or 5 μg/ml recombinant VCAM-1/Fc chimera (R&D Systems) in calcium and magnesium-free PBS (CMF-PBS; 135 mM NaCl, 2.7 mM KCl, 10.2 mM Na2HPO4-7H20 and 1.75 mM KH2PO4, pH7.4). Slides were blocked for 1 hr at 37° C. with RPMI 1640 containing 1% heat-denatured BSA (plating medium). Cells in plating medium were allowed to attach and spread for 2.5 hr at 37° C. Slides were fixed in 4% EM grade paraformaldehyde (Electron Microscopy Sciences) in CMF-PBS and labeled for 30 min in 0.13 μM rhodamine phalloidin (Invitrogen) in CMF-PBS. Coverslips were mounted in non-fluorescing mounting medium (Immumount; Thermo Shandon) and allowed to dry. […]

T1 sequence (P35968 20-1356): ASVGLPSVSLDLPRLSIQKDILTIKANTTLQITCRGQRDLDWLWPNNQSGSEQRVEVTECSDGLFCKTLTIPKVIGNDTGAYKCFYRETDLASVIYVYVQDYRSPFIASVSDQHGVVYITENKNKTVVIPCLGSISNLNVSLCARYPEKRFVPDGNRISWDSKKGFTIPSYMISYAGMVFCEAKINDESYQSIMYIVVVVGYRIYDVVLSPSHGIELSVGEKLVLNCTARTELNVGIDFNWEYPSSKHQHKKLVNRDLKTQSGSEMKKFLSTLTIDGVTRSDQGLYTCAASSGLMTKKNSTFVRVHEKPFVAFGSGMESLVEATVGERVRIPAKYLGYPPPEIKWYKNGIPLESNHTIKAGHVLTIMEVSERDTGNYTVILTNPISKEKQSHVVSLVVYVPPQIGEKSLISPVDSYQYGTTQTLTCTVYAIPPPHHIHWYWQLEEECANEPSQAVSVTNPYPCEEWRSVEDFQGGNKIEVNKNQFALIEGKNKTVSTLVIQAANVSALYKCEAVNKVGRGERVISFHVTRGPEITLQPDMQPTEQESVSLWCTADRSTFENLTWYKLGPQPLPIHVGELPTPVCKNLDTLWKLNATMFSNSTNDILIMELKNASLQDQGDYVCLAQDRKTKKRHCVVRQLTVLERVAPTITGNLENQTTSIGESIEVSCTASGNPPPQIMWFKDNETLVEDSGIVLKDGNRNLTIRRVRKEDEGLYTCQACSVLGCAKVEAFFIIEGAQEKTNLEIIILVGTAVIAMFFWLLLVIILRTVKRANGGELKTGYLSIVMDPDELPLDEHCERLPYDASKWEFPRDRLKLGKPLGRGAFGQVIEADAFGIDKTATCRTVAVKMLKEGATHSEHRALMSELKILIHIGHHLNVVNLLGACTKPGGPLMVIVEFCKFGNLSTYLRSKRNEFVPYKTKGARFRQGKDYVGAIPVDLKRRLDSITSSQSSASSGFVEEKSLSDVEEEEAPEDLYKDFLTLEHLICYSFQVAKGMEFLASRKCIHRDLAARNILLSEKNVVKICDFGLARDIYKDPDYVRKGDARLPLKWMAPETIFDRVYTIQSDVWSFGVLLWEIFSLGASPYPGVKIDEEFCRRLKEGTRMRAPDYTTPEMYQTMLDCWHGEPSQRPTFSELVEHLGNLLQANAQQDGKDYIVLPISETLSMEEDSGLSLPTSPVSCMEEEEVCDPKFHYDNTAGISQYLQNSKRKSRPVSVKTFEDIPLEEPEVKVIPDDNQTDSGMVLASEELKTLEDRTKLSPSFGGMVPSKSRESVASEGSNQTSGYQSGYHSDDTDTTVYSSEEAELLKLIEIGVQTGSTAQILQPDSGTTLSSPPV

Substance | competition for capture of VEGFR2 by GST-S1ED (VEGFR2) | adhesion of P3X cells to FN [1]
DFTFETSGENTAVVAVEPDRRNQSPVD [S1ED^210-236] | effectively blocks capture of both receptors | –
S1ED^210-233: syndecan-1 ectodomain peptide, residues 210-233 (SEQ ID NO: 4) (DFTFETSGENTAVVAVEPDRRNQS) | competes for capture of VEGFR2 | blocks the adhesion of the myeloma cells to FN
